“And” between values parts separate entries of the source, which are not always exact repeats. Equal entries are not always repeated.
Columns and labels:
Type in all cases: in vivo
[1] = Body weight and food intake of treated mice
HMGCR = target: T1, HMGCR (Mus musculus, UniProt Q01237); experiment: Immunoblotting of hepatic HMGCR protein (liver membrane fractions) of gavaged mice
T1 construct: from tissue; host or cells: mouse liver (membrane fraction)
T1 sequence (Q01237 1-887): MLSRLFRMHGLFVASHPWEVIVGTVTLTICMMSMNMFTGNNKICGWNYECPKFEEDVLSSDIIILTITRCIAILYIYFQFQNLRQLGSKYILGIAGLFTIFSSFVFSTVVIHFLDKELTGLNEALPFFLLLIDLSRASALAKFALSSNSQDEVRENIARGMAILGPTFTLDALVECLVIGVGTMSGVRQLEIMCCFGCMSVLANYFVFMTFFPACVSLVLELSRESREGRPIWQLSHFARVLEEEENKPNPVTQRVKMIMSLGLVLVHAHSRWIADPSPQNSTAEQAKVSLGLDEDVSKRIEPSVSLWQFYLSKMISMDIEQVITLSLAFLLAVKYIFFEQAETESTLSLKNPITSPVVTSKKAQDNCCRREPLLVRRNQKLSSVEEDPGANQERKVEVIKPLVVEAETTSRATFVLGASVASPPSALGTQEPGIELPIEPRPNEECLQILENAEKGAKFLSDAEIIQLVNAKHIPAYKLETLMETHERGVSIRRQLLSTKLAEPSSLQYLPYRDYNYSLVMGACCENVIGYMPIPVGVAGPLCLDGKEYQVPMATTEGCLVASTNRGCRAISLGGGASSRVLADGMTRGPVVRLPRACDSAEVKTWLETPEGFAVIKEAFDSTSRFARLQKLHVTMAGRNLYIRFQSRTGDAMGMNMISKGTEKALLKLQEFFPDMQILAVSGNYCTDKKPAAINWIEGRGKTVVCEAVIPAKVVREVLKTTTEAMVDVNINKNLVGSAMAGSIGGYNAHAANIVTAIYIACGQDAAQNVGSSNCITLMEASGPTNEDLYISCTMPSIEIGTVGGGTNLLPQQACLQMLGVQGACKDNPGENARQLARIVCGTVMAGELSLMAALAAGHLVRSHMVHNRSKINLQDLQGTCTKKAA

[2] = test system: C57BL/6J mice fed MFMC diet; experiment: Diet-induced hyperlipidemia: serum and liver TC/TG and FPLC lipoprotein profile in mice on MFMC diet; details: for TC levels in liver, mean / TC levels in the serum, mean / TG levels in liver, mean / TG levels in the serum, mean / TC levels in liver, individual mice / TC levels in the serum, individual mice / TG levels in liver, individual mice / TG levels in the serum, individual mice: 60 mg/kg/day (each agent) gavage once daily 6 weeks; for TC levels in liver, individual mice / TC levels in the serum, individual mice / TG levels in liver, individual mice / TG levels in the serum, individual mice: 60 mg/kg/day; for total cholesterol (TC) and triglyceride (TG) levels in both serum and liver / cholesterol contents in VLDL, LDL and HDL (FPLC serum lipoprotein profile): 6 weeks; for total cholesterol (TC) and triglyceride (TG) levels in both serum and liver: in words; for cholesterol contents in VLDL, LDL and HDL (FPLC serum lipoprotein profile): pooled serum
Text: Male C57BL/6 mice (8-week-old) were obtained from Shanghai Laboratory Animal Company (SLAC) (Shanghai, China). Male Ldlr^−/− mice (8-week-old) were obtained from Nanjing Biomedical Research Institute of Nanjing University (Nanjing, China). Mice had ad libitum access to water and standard chow diet (SLAC) unless mentioned otherwise. Special diets included medium-fat-medium-cholesterol diet (chow diet with10% fat, 0.2% cholesterol and 0.5% sodium cholate, custom made in SLAC), and western diet (20% fat, 1.25% cholesterol, 0.5% sodium cholate, D12109C, Research Diets). Mice were maintained in a pathogen-free environment and kept on a 12-h light/dark schedule. Mice were gavaged as described in figure legends with saline containing 0.5% methyl cellulose and 0.5% Tween-80. All mice were used in accordance with the guidelines approved by the Institutional Animal Care and Use Committee of Wuhan University.
Mice were anesthetized and blood collection was performed. Serum was prepared from blood by centrifuging at 1500 × g for 10 min. Livers were harvested and homogenized in a 2:1 mixture of chloroform and methanol using Precellys 24 (Bertin). The organic phase was dried under N2 and liver lipids were reconstituted in ethanol. Total cholesterol and triglyceride levels in the serum and liver were determined using Cholesterol Assay Kit and Triglyceride Assay Kit (Shanghai Kehua Bio-engineering, China).
Serum lipoproteins were separated by FPLC (AKTA, GE Healthcare) using Superdex 75 10/300 GL (GE Healthcare) column. One hundred microliters pooled serum from five mice per group was diluted with 200 μl PBS, and loaded to the column. Fractions were eluted with PBS at a constant rate of 0.2 ml min^–1, and collected with 300 μl per tube. 100 μl fractions were used to quantify the concentration of total cholesterol level with the Amplex Red Cholesterol Assay Kit (Invitrogen). The cholesterol distribution curves of lipoproteins were done with GraphPad Prism 6 software.

[3] = C57BL/6J mice, MFMC diet, 6 weeks

C=CCC(O)(CC=C)CCCC(C)C1CCC2C3C(O)C=C4C(C)(C)C(O)CCC4(C)C3CCC12C (centres unmarked) [Cmpd 81]
body weight and food intake [1, 3]: remained comparable
body weight and food intake ([1]; Ldlr−/− mice, WD, up to 20 weeks): did not affect
liver HMGCR protein fold change, mean (HMGCR; C57BL/6J mice, chow diet, single agent 60 mg/kg/day gavage 10 days, vehicle = 1): 0.5524
decrease of liver HMGCR amount (HMGCR; Cmpd 81 alone, 60 mg/kg/day, 10 days): 50%
decrease of liver HMGCR relative to lovastatin-treated samples (HMGCR; co-administration of Cmpd 81 with lovastatin, each 60 mg/kg/day, 10 days): > 13 fold
liver HMGCR protein fold change, mean (HMGCR; mouse, in vivo): ~ 2
TC levels in liver, mean [2]: 3.712
TC levels in the serum, mean [2]: 104.81
TG levels in liver, mean [2]: 12.3264
TG levels in the serum, mean [2]: 55.4414
TC levels in liver, individual mice [2]: 3.732 and 3.964 and 3.655 and 3.864 and 3.346
TC levels in the serum, individual mice [2]: 111 and 100.379 and 112.009 and 105.661 and 95
TG levels in liver, individual mice [2]: 12.9147 and 9.311 and 13.437 and 16.1354 and 9.834
TG levels in the serum, individual mice [2]: 60.1534 and 51.6317 and 49.6138 and 57.1457 and 58.6623
total cholesterol (TC) and triglyceride (TG) levels in both serum and liver [2]: significantly lowered
cholesterol contents in VLDL, LDL and HDL (FPLC serum lipoprotein profile) [2]: reduced to similar levels

CC[C@H](C)C(=O)O[C@H]1C[C@@H](C)C=C2C=C[C@H](C)[C@H](CC[C@@H]3C[C@@H](O)CC(=O)O3)[C@H]21 [Lovastatin, lovastatin]
body weight and food intake [1, 3]: remained comparable
hepatic HMGCR protein level, mean (HMGCR; C57BL/6J mice, 60 mg/kg/day gavage once daily 7 days, vehicle = 1, 60 mg/kg/day): 58.4 ± 3.5 fold and 58.3968 fold
hepatic HMGCR protein level, mean (HMGCR; C57BL/6J mice, 60 mg/kg/day gavage once daily 7 days, vehicle = 1, listed as lovastatin, 60 mg/kg/day): 58 fold
hepatic HMGCR protein level, individual mice (HMGCR; C57BL/6J mice, 60 mg/kg/day gavage once daily 7 days, vehicle mean = 1, 60 mg/kg/day): 61.3526 and 59.2668 and 54.571
liver HMGCR protein fold change, mean (HMGCR; C57BL/6J mice, chow diet, single agent 60 mg/kg/day gavage 10 days, vehicle = 1, listed as Lova): 32.3047
liver HMGCR protein fold change, mean (HMGCR; C57BL/6J mice, chow diet, single agent 60 mg/kg/day gavage 10 days, vehicle = 1, listed as lovastatin): more than 30
TC levels in liver, mean [2]: 3.624
TC levels in the serum, mean [2]: 103.826
TG levels in liver, mean [2]: 12.4726
TG levels in the serum, mean [2]: 54.3007
TC levels in liver, individual mice [2]: 3.3 and 3.747 and 3.618 and 3.824 and 3.629
TC levels in the serum, individual mice [2]: 108.623 and 105.887 and 100.644 and 93.2834 and 110.692
TG levels in liver, individual mice [2]: 14.0603 and 12.8492 and 8.103 and 12.4763 and 14.8742
TG levels in the serum, individual mice [2]: 51.0844 and 48 and 54.6444 and 61.1304 and 56.6444
total cholesterol (TC) and triglyceride (TG) levels in both serum and liver [2]: significantly lowered
cholesterol contents in VLDL, LDL and HDL (FPLC serum lipoprotein profile) [2]: reduced to similar levels

Source: paper PMC6277434, “Discovery of a potent HMG-CoA reductase degrader that eliminates statin-induced reductase accumulation and lowers cholesterol” (Nature Communications, 2018)
